According to patent publication US8017579B2, “Treatment of viral infections” (priority 2003, dated 2011):
Where “and” joins values, the source holds several entries; their conditions need not be identical. Equal values may be shown once. Read-outs that look alike come from different tables or passages of the source. Ends that are not written are not given here.

Assays:
HSV1 [1] = type: cell-based, herpes simplex virus type 1; conditions: for antiviral activity against HSV1 (in words): HSV1 plaque assay, Vero cells
Procedure: African Green Monkey Kidney (Vero) cells were maintained in Eagle's minimum essential medium with Earle's salt (EMEM) and supplemented with 10% foetal calf serum (heat-inactivated), 4 mM L-glutamine, and 1% (v/v) nonessential amino acids, plus penicillin and streptomycin (100 IU/ml and 100 μg/ml, respectively) (maintenance medium referred to as 10% EMEM). The cells were incubated at 37° C. in a humidified atmosphere of air with 5% CO2.
On harvesting, monolayers were washed in phosphate-buffered saline (PBS), and dislodged by incubating with trypsin in PBS for 30 min, before inactivating trypsin by addition of an equal volume of 10% EMEM and centrifuging at 500 g (5 min, 4° C.). Cell pellets were resuspended in 10% EMEM, prior to cell counting and seeding of 24-well plates. For antiviral assays, medium containing only 0.5% FCS was used (referred to as 0.5% EMEM).
Three separate passages of HSV1 virus were prepared by infecting Vero cells, and preparing semi-pure suspensions of virus from tissue culture supernatant and cell lysates, before freezing aliquots of virus at −85° C. Viral infectivity was assessed by carrying out plaque assays on serial dilutions of thawed aliquots (expressed in pfu/ml).
Peptides were obtained in lyophilised form from a commercial supplier (AltaBioscience, University of Birmingham or Advanced Biomedical), and were produced at 5 micromole scale. N-terminals were protected by addition of an acetyl group, and the C-terminals were protected by addition of an amide group.
Small quantities of peptide were weighed in sterile Eppendorf tubes, before addition of sufficient 0.5% EMEM to produce a 1.5 mM stock solution, which was frozen at −20° C. in aliquots.
(§1) Vero cells were seeded at 125,000 cells per well in 10% EMEM, and were incubated overnight resulting in confluent monolayers. Peptides were diluted in 0.5% EMEM to give 2× final desired concentration, and 100 μl aliquots were arranged on 96-well plates in arrangement to be used for 24-well plate; control wells containing normal 0.5% EMEM were also prepared. Virus stocks (p3) were thawed, and diluted in 0.5% EMEM such that there were around 100 pfu in 100 μl. Each 24-well plate was inoculated separately. Firstly 100 μl of virus stock was added to the peptide or control medium arranged on a 96-well plate. This was incubated at 37° C. for ten minutes before inoculation. Medium was removed from four wells of a 24-well plate containing confluent Vero, and the 200 μl inoculum added to the appropriate well. Once all wells were treated, the 24-well plate was incubated for a further 60-80 minutes. Finally the peptide-containing inoculum was removed, and 1 ml of 1% EMEM containing 1% carboxymethylcellulose was added to each well. Plates were incubated for a further 22 hours, before removal of overlay, and addition of 10% formaldehyde in PBS. After a further one hour incubation, fixative was removed, monolayers washed several times with tap water, and stained with carbol fuchsin solubilised in water. After 30 minutes stain was removed, and plates washed several times with tap water, before being air dried. Plaques were counted using an Olympus IX70 Inverting Microscope, and antiviral effect expressed as a percentage of the control value for each peptide concentration. The IC50 was calculated from plots of inhibitory effect against peptide concentration.
The methods employed were as described in Examples 1-4 expect peptides were prepared as 400 μM stocks in phosphate buffered saline (PBS).

bacteria = conditions: Azuma et al., Peptides, 21: 327-330 (2000); cited from earlier work
HSV2 = HSV2 plaque formation in HEp-2 cells (Example 1); type: cell-based, herpes simplex virus type 2; conditions: HSV2, HEp-2 cells
Procedure: (§2) FIG. 1 and table 1 show typical results for the test for anti-HSV1 activity. The assay involved treating confluent Vero cells in 24-well plates with medium containing virus and varying amounts of peptide for one hour, followed by removal of this inoculum, and addition of viscous ‘overlay’ medium, containing 0.2% high viscosity carboxymethylcellulose. The overlay medium only allows infection of those cells immediately adjacent to an infected cell. After 2 days incubation and then fixation and staining, small patches of infected cells (or ‘plaques’) are visible, which are counted. Each of these corresponds to the infection of a single cell during the one hour inoculation. ApoE141-149dp produced a 40% reduction in plaque number at a concentration of around 20 μM. Note the peptide was only present in the experimental system for 1 hour.
FIG. 2 and table 2 show typical results for the test for anti-HSV2 activity. The assay was carried out as for the anti-HSV1 assay, except Hep-2 cells were used rather than Vero cells. ApoE141-149dp produced a 50% reduction in plaque number at a concentration of around 20 μM. Again note that the peptide was only present in the experimental system for 1 hour.

HIV-1 = conditions: 7 days; for % Decrease in HIV p24 Production, Mean ± sd / % Decrease in HIV p24 Production, Exp. 1-3: U937 cells
Procedure: The assay was carried out by incubating HIV infected U937 cells in the presence of various levels of peptide for 7 days, followed by assay for levels of the HIV protein p24 in the cells using an Enzyme Linked Immunoabsorbant Assay (ELISA) technique.

HSV1 [2] = experiment: HSV1 plaque formation in Vero cells (Example 1); type: cell-based, herpes simplex virus type 1
Procedure: as §2

HSV2 clinical isolates = type: cell-based, herpes simplex virus type 2
Procedure: as §1
Plaque assays were performed. The methodology was as described in previous Examples for HSV1 plaque assays (including usage of Vero cells) except HSV2 clinical isolates (provided by Prof. Anthony Hart of Liverpool University) were employed instead.

HIV isolate SF162 = experiment: HIV-1 infectious foci in NP2 glioma cells over-expressing CD4 and CCR5; type: cell-based; conditions: HIV isolate SF162, NP-2 glioma cells overexpressing CCR5, 0.1 to 10 micromolar
Procedure: Similar experiments to those described in Example 2 were conducted to test the efficacy of the peptides according to the invention against HIV infection. The glioma cell line NP2 over-expressing both CD4 and the appropriate co-receptor (CCR5 or CXCR4) were maintained in DMEM supplemented with 10% FCS. 2×10^4 cells were plated per well of a 48-well plate 24 h prior to infection and grown at 37 C. The cells were then washed, and incubated in DMEM/FCS containing peptide concentrations ranging from 0.1 to 10 micromolar, at 37 C for 30 minutes. 200 focus-forming units of HIV-1 stocks were then added to each well, and the cells incubated at 37 C for a further 2 hours. The cells were then washed twice in PBS and fresh medium replaced. After 3 day's growth the cells were fixed in cold methanol:acetone, and stained in situ for expression of HIV-1 p24 using a monoclonal anti-p24 followed by a secondary anti-mouse beta-galactosidase conjugate. Expression was visualised by X-Gal staining and infectious foci enumerated by light-microscopy.

[3] = 5 μM peptide, untreated mean 152 ± 10.7

Substance: Ac-RLRARMEEMRLRARMEEM-NH2 (N-terminus and C-terminus assumed) [GIN 15]
- IC50 (HSV1 [1]): > 40 µM

Substance: HRWRKRWRKWRWRKRWRK-NH2 (C-terminus assumed) [MU_31]
- IC50 (HSV1 [1]): 7.5 µM

Substance: LRWRKRWRKWRWRKRWRK-NH2 (C-terminus assumed) [MU_30]
- IC50 (HSV1 [1]): 7.5 µM

Substance: RWRKRGRKRWRKRGRK-NH2 (C-terminus assumed) [MU_69]
- IC50 (HSV1 [1]): 13 µM

Substance: apoE 134-155: peptide derivative of apoE tested for antibacterial action (Azuma et al.) (RVRLASHLRKLRKRLLRDADDL; UniProt P02649 152-173, looked up, fragment)
- antibacterial action (in words) (bacteria): little effect

Substance: ApoE263-286: peptide from a region of apolipoprotein E that is not involved in HSPG receptor binding (SWFEPLVEDMQRQWAGLVEKVQAA; UniProt P02649 281-304, looked up, fragment)
- Plaque number, Mean ± sd (HSV2; [3]): 152 ± 12.0
- Plaque number, wells 1-4 (HSV2; [3]): 135 and 160 and 161 and 152
- Plaque number, Mean ± sd (HSV2; 10 μM peptide): 141 ± 16.1
- Plaque number, wells 1-4 (HSV2; 10 μM peptide): 157 and 121 and 151 and 134
- Plaque number, Mean ± sd (HSV2; 20 μM peptide): 146 ± 27.3
- Plaque number, wells 1-4 (HSV2; 20 μM peptide): 118 and 150 and 182 and 134
- Plaque number, Mean ± sd (HSV2; 30 μM peptide): 124 ± 24.2
- Plaque number, wells 1-4 (HSV2; 30 μM peptide): 118 and 117 and 103 and 159
- Plaque number, Mean ± sd (HSV2; 40 μM peptide): 131 ± 24.2
- Plaque number, wells 1-4 (HSV2; 40 μM peptide): 132 and 144 and 125 and 124
- reduction in infectivity (HIV-1; HIV infected U937 cells, 20 μM): 20%
- % Decrease in HIV p24 Production, Mean ± sd (HIV-1; 10 μM peptide): 23.21 ± 12.79%
- % Decrease in HIV p24 Production, Mean ± sd (HIV-1; 20 μM peptide): 22.77 ± 13.07%
- % Decrease in HIV p24 Production, Exp. 1-3 (HIV-1; 30 μM peptide): 37.94% and 27.83% and 41.78%
- % Decrease in HIV p24 Production, Mean ± sd (HIV-1; 30 μM peptide): 35.85 ± 7.21%
- % Decrease in HIV p24 Production, Mean ± sd (HIV-1; 40 μM peptide): 38.87 ± 12.70%
- % Decrease in HIV p24 Production, Exp. 1-3 (HIV-1; 50 μM peptide): 33.36% and 41.45% and 45.66%
- % Decrease in HIV p24 Production, Mean ± sd (HIV-1; 50 μM peptide): 40.16 ± 6.25%
- Plaque number, wells 1-4 (HSV1 [2]; 5 μM peptide in inoculum for 1 hour, untreated mean 107 ± 14.2): 113 and 119 and 122 and 126
- Plaque number, Mean ± sd (HSV1 [2]; 5 μM peptide, untreated mean 107 ± 14.2): 120 ± 5.5
- Plaque number, Mean ± sd (HSV1 [2]; 10 μM peptide): 114 ± 11.1
- Plaque number, wells 1-4 (HSV1 [2]; 10 μM peptide): 116 and 124 and 102
- Plaque number, Mean ± sd (HSV1 [2]; 20 μM peptide): 127 ± 17.0
- Plaque number, wells 1-4 (HSV1 [2]; 20 μM peptide): 148 and 112 and 133 and 114
- Plaque number, Mean ± sd (HSV1 [2]; 30 μM peptide): 121 ± 11.2
- Plaque number, wells 1-4 (HSV1 [2]; 30 μM peptide): 134 and 109 and 114 and 125
- Plaque number, Mean ± sd (HSV1 [2]; 40 μM peptide): 126 ± 11.2
- Plaque number, wells 1-4 (HSV1 [2]; 40 μM peptide): 120 and 113 and 125 and 144

Substance: RTRKRGRKRTRKRGRK-NH2 (C-terminus assumed) [GIN 35]
- IC50 (HSV1 [1]): 9 µM
- antiviral activity against HSV1 (in words) (HSV1 [1]): have antiviral activity

Substance: ApoE 133-162: peptide derivative of apoE with antibacterial action (Azuma et al.) (LRVRLASHLRKLRKRLLRDADDLQKRLAVY; UniProt P02649 151-180, looked up, fragment)
- antibacterial action (in words) (bacteria): most effective

Substance: RWRKRWRWRKRWRWRKRW-NH2 (C-terminus assumed) [MU_84]
- IC50 (HSV1 [1]): 10 µM

Substance: RWRKRWRKRWRKRWRK-NH2 (C-terminus assumed) [MU_37]
- IC50 (HSV1 [1]): 12.5 µM

Substance: GERLRARMEGERLRARME-NH2 (C-terminus assumed) [GIN 14]
- IC50 (HSV1 [1]): > 40 µM
- antiviral activity against HSV1 (in words) (HSV1 [1]): no antiviral activity

Substance: Ac-HMLDVMQDHFSRASSIIDEL (N-terminus assumed) [GIN 29]
- IC50 (HSV1 [1]): 38.5 µM

Substance: RWRKRWRKRWRKRWRK-NH2 (C-terminus assumed) [MU_71]
- IC50 (HSV1 [1]): 16 µM

Substance: LRTRKRGRKLRTRKRGRK-NH2 (C-terminus assumed) [GIN 16]
- IC50 (HSV1 [1]): 22 µM
- antiviral activity against HSV1 (in words) (HSV1 [1]): showed antiviral activity
- antiviral activity against HSV1 (in words) (HSV1 [1]; listed as GIN16): appreciable antiviral effect

Substance: RRWRKRWRKRRWRKRWRK-NH2 (C-terminus assumed) [MU_33]
- IC50 (HSV1 [1]): 6.5 µM
- IC50 (HSV2 clinical isolates): > 20 µM

Substance: KRWRKRWRKWRWRKRWRK-NH2 (C-terminus assumed) [MU_29]
- IC50 (HSV1 [1]): 7.5 µM

Substance: RTRKRWRKRTRKRGRK-NH2 (C-terminus assumed) [MU_70]
- IC50 (HSV1 [1]): 9.5 µM
- IC50 (HSV2 clinical isolates): > 20 µM

Substance: LRWRKRWRKLRWRKRWRK-NH2 (C-terminus assumed) [MU_35]
- IC50 (HSV1 [1]): > 15 µM

Substance: RRWRKRWRKWRWRKRWRK-NH2 (C-terminus assumed) [MU_28]
- IC50 (HSV1 [1]): 7.5 µM

Substance: HRWRKRWRKHRWRKRWRK-NH2 (C-terminus assumed) [MU_36]
- IC50 (HSV1 [1]): 10 µM

Substance: KRWRKRWRKKRWRKRWRK-NH2 (C-terminus assumed) [MU_34]
- IC50 (HSV1 [1]): 9 µM

Substance: RWRKRWRKWRWRKRWRK-NH2 (C-terminus assumed) [MU_32]
- IC50 (HSV1 [1]): 7.5 µM
- IC50 (HSV2 clinical isolates): > 20 µM

Substance: Ac-WRWRKRWRKWRWRKRWRK-NH2 (N-terminus and C-terminus assumed) [GIN 33]
- antiviral activity against HSV1 (in words) (HSV1 [1]): have antiviral activity
- IC50 (HSV2 clinical isolates): 10 µM
- anti-HIV action (in words) (HIV isolate SF162): anti-HIV action

Substance: LRKRKRLLRKRKRL-NH2 (C-terminus assumed) [GIN 37]
- IC50 (HSV1 [1]): 9 µM
- antiviral activity against HSV1 (in words) (HSV1 [1]): have antiviral activity

Substance: RTRKRGRRTRKRGR-NH2 (C-terminus assumed) [GIN 36]
- IC50 (HSV1 [1]): 9 µM
- antiviral activity against HSV1 (in words) (HSV1 [1]): have antiviral activity

Substance: LRKRKRLRKLRKRKRLRK-NH2 (C-terminus assumed) [GIN 38]
- IC50 (HSV1 [1]): 9 µM
- antiviral activity against HSV1 (in words) (HSV1 [1]): have antiviral activity
